According to patent US20080188659A1, “Method for Preparing Halogenated Amines” (Wyeth, priority 2007, published 2008):
Like-named read-outs stand apart in the source and are kept apart here.

Assays:
human 11b-HSD1 = biological target: T1, human 11b-HSD1 (Homo sapiens, UniProt P28845); assay: cell-based assay, stable CHO cell line expressing human 11b-HSD1, cortisol measured with DiscoverX HitHunter Cortisol Assay; conditions: CHO cells expressing human 11b-HSD1; serum-free media; 500 nM cortisone, 120 minutes; read-out: Human 1C50
T1 construct: expressed in transfected cells
T1 sequence (P28845 whole entry): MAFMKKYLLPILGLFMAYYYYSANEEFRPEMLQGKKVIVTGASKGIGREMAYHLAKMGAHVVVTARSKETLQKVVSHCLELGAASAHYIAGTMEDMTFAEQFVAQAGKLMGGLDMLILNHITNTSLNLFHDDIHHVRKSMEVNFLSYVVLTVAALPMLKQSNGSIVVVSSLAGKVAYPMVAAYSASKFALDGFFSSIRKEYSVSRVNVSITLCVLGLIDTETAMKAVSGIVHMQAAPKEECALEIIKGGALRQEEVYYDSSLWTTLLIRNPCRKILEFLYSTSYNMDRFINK
Description: Compounds described herein can be tested in a cell-based assay using a stable CHO cell line expressing human 11b-HSD1. Cells are plated at 20,000 cells/well in 96 well plates and incubated overnight (12-16 hrs) at 37° C./5% CO2. Cells are treated with different concentration of compound in 90 microliter serum-free media and incubated for 30 minutes at 37° C./5% CO2. 10 ul of 5 micromolar cortisone (final concentration 500 nM) is then added to the cells and the plate is incubated at 37° C./5% CO2 for 120 minutes. 15 microliter of media is withdrawn and amount of cortisol in the media is measured using the DiscoverX HitHunter Cortisol Assay (DiscoverX corp, CA).

mouse 11b-HSD1 = biological target: T2, mouse 11b-HSD1 (Mus musculus, UniProt P50172); assay: cell-based assay, stable CHO cell line expressing mouse 11b-HSD1, cortisol measured with DiscoverX HitHunter Cortisol Assay; conditions: CHO cells expressing mouse 11b-HSD1, 500 nM cortisone, 120 minutes
T2 construct: expressed in transfected cells
T2 sequence (P50172 whole entry): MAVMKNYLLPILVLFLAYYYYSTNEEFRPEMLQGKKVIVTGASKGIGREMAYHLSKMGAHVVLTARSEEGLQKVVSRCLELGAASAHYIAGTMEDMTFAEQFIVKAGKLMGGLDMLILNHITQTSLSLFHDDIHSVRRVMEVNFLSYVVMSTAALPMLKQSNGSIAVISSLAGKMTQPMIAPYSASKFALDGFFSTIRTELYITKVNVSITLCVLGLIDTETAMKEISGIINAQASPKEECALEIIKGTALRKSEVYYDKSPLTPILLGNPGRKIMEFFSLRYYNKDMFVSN
Description: To determine the potency of compounds against mouse 11b-HSD1, a stable CHO cell line expressing mouse 11b-HSD1 is used. Cells are plated at 20,000 cells/well in 96 well plates and incubated overnight (12-16 hrs) at 37° C./5% CO2. […] 10 ul of 5 micromolar cortisone (final concentration 500 nM) is then added to the cells and the plate is incubated at 37° C./5% CO2 for 120 minutes. 15 microliter of media is withdrawn and amount of cortisol in the media is measured using the DiscoverX HitHunter Cortisol Assay (DiscoverX corp, CA).

[1] = media containing 10% delipidized human serum, read-out: Mouse + Serum 1C50
[2] = serum-free media, read-out: Mouse 1C50

IC50 (human 11b-HSD1) [µM]	IC50 (mouse 11b-HSD1; [1]) [µM]	IC50 (mouse 11b-HSD1; [2]) [µM]	Compound
> 10	8.38	> 10	NC(c1ccc(C(=O)N2CCCCC2)cc1)(C(F)(F)F)C(F)(F)F [Example 9, [4-(1-Amino-2,2,2-trifluoro-1-trifluoromethyl-ethyl)-phenyl]-piperidin-1-yl-methanone]
0.565	0.645	0.225	CCN(CC)S(=O)(=O)c1ccc(C(N)(C(F)(F)F)C(F)(F)F)cc1 [Example 13, 4-(1-Amino-2,2,2-trifluoro-1-trifluoromethyl-ethyl)-N,N-diethyl-benzenesulfonamide]
–	0.291	–	CCN(CC)C(=O)c1cccc(C(N)(C(F)(F)F)C(F)(F)F)c1 [Example 11, 3-(1-Amino-2,2,2-trifluoro-1-trifluoromethyl-ethyl)-N,N-diethyl-benzamide]
< 0.01	–	0.16	C[C@@H]1CN(c2ccc(C(N)(C(F)(F)F)C(F)(F)F)nc2)CCN1S(=O)(=O)c1cccc(C(C)(O)C(F)(F)F)c1 (stereo partly drawn) [Example 14, 2-(3-{[(2R)-4-{6-[1-amino-2,2,2-trifluoro-1-(trifluoromethyl)ethyl]pyridin-3-yl}-2-methylpiperazin-1-yl]sulfonyl}phenyl)-1,1,1-trifluoropropan-2-ol]
0.08	–	0.2	C[C@@H]1CN(c2ccc(C(N)(C(F)(F)F)C(F)(F)F)cc2C(F)(F)F)CCN1S(=O)(=O)c1cccc(C(C)(O)C(F)(F)F)c1 (stereo partly drawn) [Example 15, 2-(3-{[(2R)-4-{4-[1-amino-2,2,2-trifluoro-1-(trifluoromethyl)ethyl]-2-(trifluoromethyl)phenyl}-2-methylpiperazin-1-yl]sulfonyl}phenyl)-1,1,1-trifluoropropan-2-ol]
–	0.165	–	CCN(CC)C(=O)c1ccc(C(N)(C(F)(F)F)C(F)(F)F)cc1 [Example 12, 4-(1-Amino-2,2,2-trifluoro-1-trifluoromethyl-ethyl)-N,N-diethyl-benzamide]
0.09	–	< 0.1	C[C@@H]1CN(c2ccc(C(N)(C(F)(F)F)C(F)(F)F)cc2C(F)(F)F)CCN1S(=O)(=O)c1ccc(C(C)(O)C(F)(F)F)cc1 (stereo partly drawn) [Example 16, 2-{4-([(2R)-4-[4-[1-amino-2,2,2-trifluoro-1-(trifluoromethyl)ethyl]-2-(trifluoromethyl)phenyl]-2-methylpiperazin-1-yl}sulfonyl)phenyl]-1,1,1-trifluoropropan-2-ol]

Further lines, the molecule ahead of its results:

Compound	IC50 (human 11b-HSD1) [µM]	IC50 (mouse 11b-HSD1; [1]) [µM]	IC50 (mouse 11b-HSD1; [2]) [µM]
COc1ccc(N(C(=O)OC(C)(C)C)S(=O)(=O)c2ccc(C(N)(C(F)(F)F)C(F)(F)F)cc2)cc1 [Example 10, 4-(1-Amino-2,2,2-trifluoro-1-trifluoromethyl-ethyl)-N-(tert-butoxycarbonyl)-N-(4-methoxy-phenyl)-benzenesulfonamide]	> 10	> 10	> 10
CCN(CC)S(=O)(=O)c1cccc(C(N)(C(F)(F)F)C(F)(F)F)c1 [Example 4, 3-(1-Amino-2,2,2-trifluoro-1-trifluoromethyl-ethyl)-N,N-diethyl-benzenesulfonamide]	> 10	> 10	> 10
CC(C)(C)OC(=O)N(C1CCCCC1)S(=O)(=O)c1cccc(C(N)(C(F)(F)F)C(F)(F)F)c1 [Example 5, 3-(1-Amino-2,2,2-trifluoro-1-trifluoromethyl-ethyl)-N-(tert-butoxycarbonyl)-N-cyclohexyl-benzenesulfonamide]	> 10	> 10	> 10
NC(c1ccc(S(=O)(=O)N2CCCCC2)cc1)(C(F)(F)F)C(F)(F)F [Example 2, 2,2,2-Trifluoro-1-[4-(piperidine-1-sulfonyl)-phenyl]-1-trifluoromethyl-ethylamine]	0.428	0.731	0.613
CC(C)(C)OC(=O)N(Cc1ccccc1)S(=O)(=O)c1cccc(C(N)(C(F)(F)F)C(F)(F)F)c1 [Example 6, 3-(1-Amino-2,2,2-trifluoro-1-trifluoromethyl-ethyl)-N-benzyl-N-(tert-butoxycarbonyl)-benzenesulfonamide]	> 10	> 10	> 10
NC(c1cccc(C(=O)N2CCCCC2)c1)(C(F)(F)F)C(F)(F)F [Example 7, [3-(1-Amino-2,2,2-trifluoro-1-trifluoromethyl-ethyl)-phenyl]-piperidin-1-yl-methanone]	2.38	2.69	> 10
NC(c1cccc(S(=O)(=O)N2CCCC2)c1)(C(F)(F)F)C(F)(F)F [Example 3, 2,2,2-Trifluoro-1-[3-(pyrrolidine-1-sulfonyl)-phenyl]-1-trifluoromethyl-ethylamine]	> 10	> 10	> 10
NC(c1cccc(S(=O)(=O)N2CCCCC2)c1)(C(F)(F)F)C(F)(F)F [Example 1, 2,2,2-Trifluoro-1-[3-(piperidine-1-sulfonyl)-phenyl]-1-trifluoromethyl-ethylamine]	> 10	3.32	> 10
COc1ccc(N(C(=O)OC(C)(C)C)S(=O)(=O)c2cccc(C(N)(C(F)(F)F)C(F)(F)F)c2)cc1 [Example 8, 3-(1-Amino-2,2,2-trifluoro-1-trifluoromethyl-ethyl)-N-(tert-butoxycarbonyl)-N-(4-methoxy-phenyl)-benzenesulfonamide]	> 10	> 10	> 10
